Like-named read-outs stand apart in the source and are kept apart here.
Target: T1, arginase (RocF) (Helicobacter pylori, UniProt O25949)
T1 construct: gene HP_1399; RocF with C-terminal His6 tag, apo form, expressed in E. coli BL21 (DE3)
Experiment: colorimetric arginase assay (ninhydrin detection of L-ornithine), purified apo-RocF heat-activated with Co2+, pH […]
Assay type: biochemical

T1 sequence (O25949 entry or part of it): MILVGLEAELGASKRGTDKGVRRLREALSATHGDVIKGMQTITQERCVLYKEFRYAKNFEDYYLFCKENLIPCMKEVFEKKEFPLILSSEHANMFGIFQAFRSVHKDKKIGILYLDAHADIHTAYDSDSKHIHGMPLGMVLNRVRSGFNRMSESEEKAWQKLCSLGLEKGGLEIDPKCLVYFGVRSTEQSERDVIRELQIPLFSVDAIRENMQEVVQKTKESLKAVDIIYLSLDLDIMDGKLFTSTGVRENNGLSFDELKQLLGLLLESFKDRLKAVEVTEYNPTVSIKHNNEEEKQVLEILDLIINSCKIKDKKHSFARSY

Row | IC50 (read-out: IC50) | Compound | IC50
1 |  | N[C@@H](CSCCB(O)O)C(=O)O [BEC, S-(2-boronoethyl)-L-Cysteine] | 1000 µM
2 | 500 µM | N=C(NO)NCC[C@H](N)C(=O)O [nor-NOHA] | 

Source: paper PMC3197605, “Expression, Purification and Characterization of Arginase from Helicobacter pylori in Its Apo Form” (PLoS ONE, 2011)
